Test results: patent US6852715B1, “Indolocarbazole alkaloids from a marine actinomycete” (Instituto Biomar S.A., priority 1909, dated 2005)

Assays:
Assay type in all cases: cell-based
[1] = system: SK-MEL-28 (monolayer culture of a human melanoma); assay: In vitro antitumor activity, SK-MEL-28 cell growth (Crystal Violet); details: SK-MEL-28 cells, three days of incubation at 37° C., Crystal Violet staining
Procedure: (§1) The antitumor activities of IB-97224 and IB-97225 have been determined in vitro in cell cultures of mouse leukemia P-388D1, human lung carcinoma A-549, human colon carcinoma HT-29 and human melanoma SK-MEL-28. The procedure was carried out using the methodology described by Bergeron, et al. (1984), and by Schroeder, et al. (1981).
(§2) Biological activity: The antitumor cells employed have been P-388D1 (suspension culture of a lymphoid neoplasm from DBA/2 mouse), A-549 (monolayer culture of a human macrocytic lung carcinoma), HT-29 (monolayer culture of a human colon carcinoma), and SK-MEL-28 (monolayer culture of a human melanoma). P-388D1 cells were seeded into 16 mm wells at 1×10^4 cells per well in 1 ml aliquots of MEM 5FCS containing the indicated concentration of drug. A separate set of cultures without drug was seeded as control of growth to ensure that cells remained in exponential phase of growth. All determinations were carried out duplicated. After three days of incubation at 37° C. in 10% CO2 atmosphere with 98% humidity, the IC50 was calculated by comparing the growth in wells with drug with the growth in control wells without the drug. […] The IC50 was calculated by comparing the growth in wells with drug with the growth in control wells without the drug.

[2] = system: P-388D1 (suspension culture of a lymphoid neoplasm from DBA/2 mouse); assay: In vitro antitumor activity, P-388D1 cell growth; details: P388D1 cells, three days of incubation at 37° C., growth vs control wells without drug
Procedure: as §1, §2

[3] = system: HT-29 (monolayer culture of a human colon carcinoma); assay: In vitro antitumor activity, HT-29 cell growth (Crystal Violet); details: HT-29 cells, three days of incubation at 37° C., Crystal Violet staining
Procedure: as §1, §2

[4] = system: A-549 (monolayer culture of a human macrocytic lung carcinoma); assay: In vitro antitumor activity, A-549 cell growth (Crystal Violet); details: A-549 cells, three days of incubation at 37° C., Crystal Violet staining
Procedure: as §1, §2

CO[C@H]1[C@@H](N(C)C)[C@H](O)C2OC1(C)n1c3ccccc3c3c4c(c5c6ccccc6n2c5c31)C(=O)NC4 (some centres unmarked) [IB-97224, 4′N-methyl-5′-hydroxystaurosporine]
IC50 [1]: 4 nM
IC50 [2]: 40 nM
IC50 [3]: 4 nM
IC50 [4]: 2 nM

CN[C@H]1[C@H](O)[C@@H]2O[C@](C)([C@H]1OC)n1c3ccccc3c3c4c(c5c6ccccc6n2c5c31)C(=O)NC4 [IB-97225, 5′-hydroxystaurosporine]
IC50 [1]: 2 nM
IC50 [2]: 20 nM
IC50 [3]: 4 nM
IC50 [4]: 2 nM
